Test results taken from PubChem BioAssay AID816 (SRMLSC, 2007).
Active and inactive are the calls of the source. How the calls were made is not given here.

System: S. cerevisiae GAL1 promoter reporter activation counterscreen
Assay: yeast Gal1p promoter activation – S. cerevisiae, artefact control for yeast lifespan extension project (AID 816);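 further: yeast growth read after 24 h of incubation with compounds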

For Oc1ccc2ccccc2c1C=Nc1ccccc1-c1nc2ccccc2[nH]1, which EC50 is on record?
Its EC50 is > 40 µM (inactive).

Which EC50 does the source give for CCCCNC(=O)/C(C#N)=C/c1cccnc1 here?
Its EC50 is > 40 µM (inactive).

For C=CCn1c(O)c(C(CC)=NCCN2CCOCC2)c(=O)[nH]c1=O, which EC50 is on record?
Its EC50 is > 40 µM (inactive).

How did the EC50 turn out when CCn1ccc(C(=O)Nc2ccc(S(=O)(=O)Nc3ccccc3OC)cc2)n1 was run?
Its EC50 is > 40 µM (inactive).

For CS(=O)(=O)c1nc(-c2cccs2)cc(C(F)(F)F)n1, which EC50 is on record?
Its EC50 is > 40 µM (inactive).

With CC(C)CN=C(NS(=O)(=O)c1ccccc1)C(Cl)(Cl)Cl as the compound, how does the EC50 read?
The EC50 was > 40 µM (inactive).

Which EC50 does the source give for Cc1ccnc(-n2c(C)cc(/C=C3\C(=O)NC(=S)N(C)C3=O)c2C)c1 here?
Its EC50 is > 40 µM (inactive).

With CC(=C1C(=O)c2ccccc2C1=O)N1CCN(c2ccccn2)CC1 as the compound, how does the EC50 read?
The EC50 was > 40 µM (inactive).

O=C(c1cnn2c(C(F)F)cc(C3CC3)nc12)N1CCCC1 was tested. Which EC50 did it give?
Its EC50 is > 40 µM (inactive).

CC(=O)c1c(O)cc2n(c1=O)-c1ccc(Cl)cc1C2(C)C was tested. Which EC50 did it give?
The EC50 was > 40 µM (inactive).

With CCc1[nH]nc2c1C(c1ccc(Br)s1)C(C#N)=C(N)O2 (stereo unspecified) as the compound, how does the EC50 read?
Its EC50 is > 40 µM (inactive).

For CCn1ncc(/C=N/NC(=O)c2ccc3c(c2)OCO3)c1C, which EC50 is on record?
The EC50 was > 40 µM (inactive).

C/C=C/Cn1c(N2CCCCCC2)nc2c1c(=O)[nH]c(=O)n2C was tested. Which EC50 did it give?
Its EC50 is > 40 µM (inactive).

How did the EC50 turn out when CCCc1nc2c(c(=O)c3ccccc3n2C)c(=O)n1C1CCCCCC1 was run?
The EC50 was > 40 µM (inactive).

With CC[n+]1ccc(C[n+]2ccccc2)c2ccccc21 as the compound, how does the EC50 read?
The EC50 was > 40 µM (inactive).

For Oc1ccc(NCc2ccccc2OCc2ccccc2F)cc1, which EC50 is on record?
Its EC50 is > 40 µM (inactive).

For CCCCCn1c(=O)c(C(=O)NCc2ccccn2)c(O)c2ccccc21, which EC50 is on record?
Its EC50 is > 40 µM (inactive).

For CC1Cc2ccccc2N1C(=O)Cn1cnc2ccccc2c1=O (stereo unspecified), which EC50 is on record?
The EC50 was > 40 µM (inactive).

O=S(=O)(Nc1nc2ccccc2nc1Cl)c1ccc2ccccc2c1 was tested. Which EC50 did it give?
The EC50 was > 40 µM (inactive).

How did the EC50 turn out when O=C1c2ccccc2C(Nc2ccc3c(c2)OCCO3)N1c1ccccn1 (stereo unspecified) was run?
Its EC50 is > 40 µM (inactive).

For CCCCOC(=O)CSc1nc2c(c(=O)[nH]c(=O)n2C)n1C/C=C(\C)Cl, which EC50 is on record?
Its EC50 is > 40 µM (inactive).

CCOC(=O)c1ccc2c(c1)n(CCO)c(C)[n+]2CC was tested. Which EC50 did it give?
Its EC50 is > 40 µM (inactive).

O=C(O)Cc1ccc(N=Cc2c(O)ccc3ccccc23)cc1 was tested. Which EC50 did it give?
Its EC50 is > 40 µM (inactive).

How did the EC50 turn out when COc1ccc(/C=C(\C#N)C(=O)N2CCOCC2)cc1Br was run?
Its EC50 is > 40 µM (inactive).

For COc1c(Br)cc(Br)cc1/C=N/n1c(C)nnc1C, which EC50 is on record?
The EC50 was > 40 µM (inactive).

How did the EC50 turn out when O=C1C=CCC(/C=C/c2ccccc2)O1 (stereo unspecified) was run?
The EC50 was > 40 µM (inactive).

Cc1ccc(CNc2nc3ccccc3s2)s1 was tested. Which EC50 did it give?
Its EC50 is > 40 µM (inactive).

How did the EC50 turn out when CCn1c(/C=N/c2nc3ccccc3n2C)nc2ccccc21 was run?
The EC50 was > 40 µM (inactive).

With CCOC(=O)c1cnc(-c2ccccc2)nc1Oc1ccc(Cl)cc1 as the compound, how does the EC50 read?
The EC50 was > 40 µM (inactive).

With Cc1ccc(-c2nc3ccc(Cl)cc3n2OC(=O)N(C)C)cc1 as the compound, how does the EC50 read?
The EC50 was > 40 µM (inactive).

O=c1[nH]c2ccccc2nc1Cc1ccccc1 was tested. Which EC50 did it give?
The EC50 was > 40 µM (inactive).

Which EC50 does the source give for Cc1cc(C)c(S(=O)(=O)c2ccccc2)c(OC(=O)c2ccc(Cl)cc2Cl)n1 here?
The EC50 was > 40 µM (inactive).

How did the EC50 turn out when O=C1ON=C(c2ccccc2)/C1=C/c1ccc(-c2ccccc2[N+](=O)[O-])o1 was run?
Its EC50 is > 40 µM (inactive).

Cc1ccc2nc(N3C(=O)C(O)=C(C(=O)c4ccco4)C3c3cccs3)sc2c1 (stereo unspecified) was tested. Which EC50 did it give?
Its EC50 is > 40 µM (inactive).

Which EC50 does the source give for CCOC(=O)c1[nH]nc(C(=O)c2ccc(Br)cc2)c1O here?
The EC50 was > 40 µM (inactive).

CCOc1cc(Br)c(Br)c(C=Nc2ccc(NC(C)=O)cc2)c1O was tested. Which EC50 did it give?
Its EC50 is > 40 µM (inactive).

With CCn1c(=O)c2ccccc2n2c(SCC(=O)N3CCCc4ccccc43)nnc12 as the compound, how does the EC50 read?
The EC50 was > 40 µM (inactive).

How did the EC50 turn out when O=C(O)c1cccc2c1C(=O)N(C1CCCCC1)C2 was run?
Its EC50 is > 40 µM (inactive).

With CCOc1ccccc1/C=c1\sc2ncnn2c1=O as the compound, how does the EC50 read?
Its EC50 is > 40 µM (inactive).

For Cn1c(SCC(=O)N2CCCc3ccccc32)nnc1-c1c[nH]c2ccccc12, which EC50 is on record?
Its EC50 is > 40 µM (inactive).

How did the EC50 turn out when COC(=O)c1cc(=O)n(-c2ccccc2)c(=Nc2ccccc2)s1 was run?
The EC50 was > 40 µM (inactive).

For CC1CCCN(c2nc3ccccc3nc2C(C#N)C(=O)OC2CCCCC2)C1 (stereo unspecified), which EC50 is on record?
The EC50 was > 40 µM (inactive).

How did the EC50 turn out when O=[N+]([O-])c1c(C(Cl)Cl)nn(-c2ccccc2)c1N1CCCC1 was run?
The EC50 was > 40 µM (inactive).

With CCOC(=O)CN1C(=O)N[C@H](c2ccc(Br)cc2)C(C(C)=O)=C1C as the compound, how does the EC50 read?
Its EC50 is > 40 µM (inactive).

Which EC50 does the source give for CCCn1[nH]cc(SC)c(=O)c1=O here?
Its EC50 is > 40 µM (inactive).

O=c1cc(O)c2c(=O)n(-c3ccccc3)c3c(c2o1)CCCCCC3 was tested. Which EC50 did it give?
The EC50 was > 40 µM (inactive).

For CCOC(=O)c1nnn(-c2nonc2N)c1CN1CCc2ccccc2C1, which EC50 is on record?
The EC50 was > 40 µM (inactive).

Which EC50 does the source give for CC(=O)Oc1oc(-c2ccccc2)nc1C=Nc1ccccc1 here?
The EC50 was > 40 µM (inactive).

For COC(=O)/C(=C/c1cn(C)c2ccccc12)[N+](=O)[O-], which EC50 is on record?
Its EC50 is > 40 µM (inactive).

Which EC50 does the source give for O=C(/C=C/c1ccccc1)Nc1ncn[nH]1 here?
The EC50 was > 40 µM (inactive).

How did the EC50 turn out when CCN1C(=O)/C(=C/N(C(C)=O)c2ccccc2)N(c2ccccc2)C1=S was run?
Its EC50 is > 40 µM (inactive).
